Results taken from US20030224942A1, “Alkylamino-1,3,5-triazines, processes for their preparation and their use as herbicides and plant growth regulators” (priority 2001, published 2003).

How the values were obtained:
[1] = tested on: Chenopodium spp., Papaver spp., Polygonum spp., Veronica spp. or Viola spp.; assay: Post-emergence effect on weeds (greenhouse pot test, visual scoring); format: in vivo, monocotyledonous and dicotyledonous weeds; settings: treated at three-leaf stage; visual scoring after about 3 to 4 weeks; application rate of 0.5 kg and less of active substance per hectare
[2] = tested on: Cyperus spp., Echinochloa spp., Digitaria spp., Sagitaria spp. and Scirpus spp.; assay: Action on harmful plants in rice (paddy rice conditions, visual scoring); format: in vivo, typical rice weeds (gramineous and broad-leaved); settings: applied into the dammed water, visual scoring about three weeks after application
How it was run: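 Under paddy conditions with 2-3 cm dammed water, transplanted and sown rice plus weeds were treated at three-leaf stage (E. crus-galli at 1.5 leaves). Pots stayed in greenhouse under optimum growth conditions for the test period, with visual assessment of damage.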

Structure (SMILES)	herbicidal activity post-emergence against harmful plants [1]	herbicidal activity against harmful plants which are typical for rice crops [2]
CC(Nc1nc(N)nc(C(C)(C)F)n1)c1cc(F)c(C(F)=C(F)F)c(F)c1 (centres unmarked) [Product P17.49]	very good herbicidal activity	very good herbicidal activity
C#Cc1cc(C(C)Nc2nc(N)nc(C(C)(C)F)n2)ccc1F (centres unmarked) [Product P17.309]	very good herbicidal activity	very good herbicidal activity
C#Cc1ccc(C(C)Nc2nc(N)nc(C(C)(C)F)n2)cc1C (centres unmarked) [Product P17.335]	very good herbicidal activity	very good herbicidal activity
C#Cc1c(C)cc(C(C)Nc2nc(N)nc(C(C)(C)F)n2)cc1C (centres unmarked) [Product P17.348]	very good herbicidal activity	very good herbicidal activity
C#Cc1c(F)cc(C(C)Nc2nc(N)nc(C(C)(C)F)n2)cc1F (centres unmarked) [Product P17.352]	very good herbicidal activity	very good herbicidal activity
C#Cc1ccc(C(C)Nc2nc(N)nc(C(C)(C)F)n2)cc1C#C (centres unmarked) [Product P17.358]	very good herbicidal activity	very good herbicidal activity
C#Cc1cc(C#C)cc(C(C)Nc2nc(N)nc(C(C)(C)F)n2)c1 (centres unmarked) [Product P17.369]	very good herbicidal activity	very good herbicidal activity
CC#Cc1cc(C(C)Nc2nc(N)nc(C(C)(C)F)n2)ccc1F (centres unmarked) [Product P17.384]	very good herbicidal activity	very good herbicidal activity
CC#Cc1c(C)cc(C(C)Nc2nc(N)nc(C(C)(C)F)n2)cc1C (centres unmarked) [Product P17.424]	very good herbicidal activity	very good herbicidal activity
CC#Cc1c(F)cc(C(C)Nc2nc(N)nc(C(C)(C)F)n2)cc1F (centres unmarked) [Product P17.428]	very good herbicidal activity	very good herbicidal activity
CC#Cc1cc(C(C)Nc2nc(N)nc(C(C)(C)F)n2)cc(C#CC)c1F (centres unmarked) [Product P17.450]	very good herbicidal activity	very good herbicidal activity
C=C=Cc1c(F)cc(C(C)Nc2nc(N)nc(C(C)(C)F)n2)cc1F (centres unmarked) [Product P17.656]	very good herbicidal activity	very good herbicidal activity
CCCCC#Cc1cc(C(C)Nc2nc(N)nc(C(C)(C)F)n2)ccc1F (centres unmarked) [Product P17.688]	very good herbicidal activity	very good herbicidal activity
CCCCC#Cc1c(C)cc(C(C)Nc2nc(N)nc(C(C)(C)F)n2)cc1C (centres unmarked) [Product P17.728]	very good herbicidal activity	very good herbicidal activity
CC(F)C#Cc1cc(C(C)Nc2nc(N)nc(C(C)(C)F)n2)ccc1F (centres unmarked) [Product P17.764]	very good herbicidal activity	very good herbicidal activity
CC(O)C#Cc1cc(C(C)Nc2nc(N)nc(C(C)(C)F)n2)ccc1F (centres unmarked) [Product P17.840]	very good herbicidal activity	very good herbicidal activity
CC(Nc1nc(N)nc(C(C)(C)F)n1)c1ccc(F)c(C2CC2)c1 (centres unmarked) [Product P17.916]	very good herbicidal activity	very good herbicidal activity
CC(Nc1nc(N)nc(C(C)(C)F)n1)c1cc(F)c(C2CC2)c(F)c1 (centres unmarked) [Product P17.960]	very good herbicidal activity	very good herbicidal activity
CC(Nc1nc(N)nc(C(C)(C)F)n1)c1cccc(C(F)=C(F)F)c1 (centres unmarked) [Product P17.1567]	very good herbicidal activity	very good herbicidal activity
CC(Nc1nc(N)nc(C(C)(C)F)n1)c1ccc(C(F)=C(F)F)cc1 (centres unmarked) [Product P17.1568]	very good herbicidal activity	very good herbicidal activity

Structure (SMILES)	herbicidal activity post-emergence against harmful plants [1]	herbicidal activity against harmful plants which are typical for rice crops [2]
C#Cc1cccc(C(C)Nc2nc(N)nc(C(C)(C)F)n2)c1 (centres unmarked) [Product P17.1579]	very good herbicidal activity	very good herbicidal activity
C#Cc1ccc(C(C)Nc2nc(N)nc(C(C)(C)F)n2)cc1 (centres unmarked) [Product P17.1580]	very good herbicidal activity	very good herbicidal activity
CC#Cc1cccc(C(C)Nc2nc(N)nc(C(C)(C)F)n2)c1 (centres unmarked) [Product P17.1582]	very good herbicidal activity	very good herbicidal activity
CC#Cc1ccc(C(C)Nc2nc(N)nc(C(C)(C)F)n2)cc1 (centres unmarked) [Product P17.1583]	very good herbicidal activity	very good herbicidal activity
CCCCC#Cc1cccc(C(C)Nc2nc(N)nc(C(C)(C)F)n2)c1 (centres unmarked) [Product P17.1594]	very good herbicidal activity	very good herbicidal activity
CCCCC#Cc1ccc(C(C)Nc2nc(N)nc(C(C)(C)F)n2)cc1 (centres unmarked) [Product P17.1595]	very good herbicidal activity	very good herbicidal activity
CC(F)C#Cc1cccc(C(C)Nc2nc(N)nc(C(C)(C)F)n2)c1 (centres unmarked) [Product P17.1597]	very good herbicidal activity	very good herbicidal activity
CC(F)C#Cc1ccc(C(C)Nc2nc(N)nc(C(C)(C)F)n2)cc1 (centres unmarked) [Product P17.1598]	very good herbicidal activity	very good herbicidal activity
CC(O)C#Cc1cccc(C(C)Nc2nc(N)nc(C(C)(C)F)n2)c1 (centres unmarked) [Product P17.1600]	very good herbicidal activity	very good herbicidal activity
CC(O)C#Cc1ccc(C(C)Nc2nc(N)nc(C(C)(C)F)n2)cc1 (centres unmarked) [Product P17.1601]	very good herbicidal activity	very good herbicidal activity
CC(Nc1nc(N)nc(C(C)(C)F)n1)c1cccc(C2CC2)c1 (centres unmarked) [Product P17.1603]	very good herbicidal activity	very good herbicidal activity
CC(Nc1nc(N)nc(C(C)(C)F)n1)c1ccc(C2CC2)cc1 (centres unmarked) [Product P17.1604]	very good herbicidal activity	very good herbicidal activity
C#Cc1ccc(C(C)Nc2nc(N)nc(C(C)(C)F)n2)cc1F (centres unmarked) [Product P17.1620]	very good herbicidal activity	very good herbicidal activity
C#Cc1cc(C(Nc2nc(N)nc(C(C)(C)F)n2)C2CC2)ccc1F (centres unmarked) [Product P19.309]	very good herbicidal activity	very good herbicidal activity
C#Cc1c(F)cc(C(Nc2nc(N)nc(C(C)(C)F)n2)C2CC2)cc1F (centres unmarked) [Product P19.352]	very good herbicidal activity	very good herbicidal activity
CC#Cc1cc(C(Nc2nc(N)nc(C(C)(C)F)n2)C2CC2)ccc1F (centres unmarked) [Product P19.384]	very good herbicidal activity	very good herbicidal activity
CC#Cc1c(F)cc(C(Nc2nc(N)nc(C(C)(C)F)n2)C2CC2)cc1F (centres unmarked) [Product P19.428]	very good herbicidal activity	very good herbicidal activity
CC(C)(F)c1nc(N)nc(NC(c2cccc(C(F)=C(F)F)c2)C2CC2)n1 (centres unmarked) [Product P19.1567]	very good herbicidal activity	very good herbicidal activity
CC(C)(F)c1nc(N)nc(NC(c2ccc(C(F)=C(F)F)cc2)C2CC2)n1 (centres unmarked) [Product P19.1568]	very good herbicidal activity	very good herbicidal activity
C#Cc1cccc(C(Nc2nc(N)nc(C(C)(C)F)n2)C2CC2)c1 (centres unmarked) [Product P19.1579]	very good herbicidal activity	very good herbicidal activity
